# Measurements taken from ChEMBL document CHEMBL5053545, “Iterative Structure-Based Optimization of Short Peptides Targeting the Bacterial Sliding Clamp” (J Med Chem, 2021).
# *1 amine or outer side, *2 acyl side, *3 side chain or, on linkers, in order; H or OH if unused. Where a SMILES comes first, the peptide text is derived from it. [ ]: non-standard residue; d: D form. The star is where a group is joined. N(3-imidazol-1-ylpropyl)Gly = O=C(O)CNCCCn1ccnc1; NEtAsp = CCN([C@@H](CC(=O)[*:3])C(=O)[*:2])[*:1]; ACHC(1S,2S) = O=C([C@H]1CCCC[C@@H]1N[*:1])[*:2]; Gly(N-3-morpholinopropyl) = O=C(O)CNCCCN1CCOCC1; Phe(3,4-Cl2) = N[C@@H](Cc1ccc(Cl)c(Cl)c1)C(=O)O; Phe(3,4-F2) = N[C@@H](Cc1ccc(F)c(F)c1)C(=O)O; Oic = O=C(O)[C@@H]1C[C@@H]2CCCC[C@@H]2N1; Caffeoyl = O=C(/C=C/c1ccc(O)c(O)c1)*; X6 = O=C([C@@H]1CC(O)CN1[*:1])[*:2]; NMeCha = CN[C@@H](CC1CCCCC1)C(=O)O; NMeR = CN[C@@H](CCCNC(=N)N)C(=O)O; NMeF = CN[C@@H](Cc1ccccc1)C(=O)O; tBuAla = CC(C)(C)C[C@H](N)C(=O)O; NMeQ = CN[C@@H](CCC(N)=O)C(=O)O; Cha = N[C@@H](CC1CCCCC1)C(=O)O; NMeD = CN[C@@H](CC(=O)O)C(=O)O; NMeL = CN[C@@H](CC(C)C)C(=O)O; Phe(ol) = N[C@H](CO)Cc1ccccc1; NHPhenethyl = c1ccc(CCN*)cc1; Pip = O=C(O)[C@@H]1CCCCN1; X4 = NC[C@H](Cc1ccccc1)N*
# Legend:
# [1] = Binding affinity to Escherichia coli sliding clamp assessed as dissociation constant by ITC analysis
# [2] = test system: Escherichia coli; test: Binding affinity to Escherichia coli sliding clamp assessed as gibbs free energy change by ITC analysis
# [3] = test system: Escherichia coli; test: Binding affinity to Escherichia coli sliding clamp assessed as association rate constant by ITC analysis
# [4] = test system: Escherichia coli; test: Binding affinity to Escherichia coli sliding clamp assessed as dissociation rate constant by ITC analysis
deltaG [2] [kcal/mol],K [3],K [4],SMILES,Kd [1] [nM]
-8.2,1.9 10^4/M/s,1.8 10^-2/s,CC(=O)N[C@@H](CCC(N)=O)C(=O)N[C@@H](CC1CCCCC1)C(=O)N[C@@H](CC(=O)O)C(=O)N[C@@H](CC(C)C)C(=O)NCCc1ccccc1 (Ac-Q[Cha]DL-NHPhenethyl),922
-8.27,1.2 10^4/M/s,1.1 10^-2/s,CC(=O)N[C@@H](CCC(N)=O)C(=O)N[C@@H](CC1CCCCC1)C(=O)N[C@@H](CC(=O)O)C(=O)N[C@@H](CC(C)C)C(=O)N[C@H](CN)Cc1ccccc1 (Ac-Q[Cha]DL-X4),877
-9,3.3 10^4/M/s,9.1 10^-3/s,CC(=O)N[C@@H](CCC(N)=O)C(=O)N[C@@H](CC1CCCCC1)C(=O)N[C@@H](CC(=O)O)C(=O)N[C@@H](CC(C)C)C(=O)N[C@@H](Cc1ccccc1)C(N)=O (Ac-Q[Cha]DLF-NH2),268
-8.9,3.2 10^4/M/s,1.1 10^-2/s,CC(=O)N[C@@H](CCC(N)=O)C(=O)N[C@@H](CC1CCCCC1)C(=O)N[C@@H](CC(=O)O)C(=O)N[C@@H](CC(C)C)C(=O)NCC(=O)N[C@@H](Cc1ccccc1)C(=O)O (Ac-Q[Cha]DLGF-OH),313
-8.4,2.6 10^4/M/s,1.7 10^-2/s,CC(=O)N[C@@H](CCC(N)=O)C(=O)N[C@@H](CC1CCCCC1)C(=O)N[C@@H](CC(=O)O)C(=O)N[C@@H](CC(C)C)C(=O)NCC(=O)N[C@@H](CC(C)C)C(=O)O (Ac-Q[Cha]DLGL-OH),682
-7.6,1.1 10^4/M/s,3 10^-2/s,CC(=O)N[C@@H](CCC(N)=O)C(=O)N[C@@H](CC1CCCCC1)C(=O)N[C@@H](CC(=O)O)C(=O)N[C@@H](CC(C)C)C(=O)NCC(=O)N[C@@H](CC(C)(C)C)C(=O)O (Ac-Q[Cha]DLG[tBuAla]-OH),2690
-9.7,6 10^4/M/s,5 10^-3/s,CC(=O)N[C@@H](CCC(N)=O)C(=O)N[C@@H](CC1CCCCC1)C(=O)N[C@@H](CC(=O)O)C(=O)N[C@@H](CC(C)C)C(=O)N1CCC[C@H]1C(=O)N[C@@H](Cc1ccccc1)C(=O)O (Ac-Q[Cha]DLPF-OH),81
-9.2,5.7 10^4/M/s,1.1 10^-2/s,CC(=O)N[C@@H](CCC(N)=O)C(=O)N[C@@H](CC1CCCCC1)C(=O)N[C@@H](CC(=O)O)C(=O)N[C@@H](CC(C)C)C(=O)N1CCC[C@H]1C(=O)N[C@@H](CC(C)C)C(=O)O (Ac-Q[Cha]DLPL-OH),182
-7.4,7.4 10^4/M/s,2.9 10^-2/s,"CC(=O)N[C@@H](CCC(N)=O)C(=O)N[C@@H](CC1CCCCC1)C(=O)N[C@@H](CC(=O)O)C(=O)N[C@@H](CC(C)C)C(=O)N[C@H]1CCCC[C@@H]1C(=O)N[C@@H](CC(C)C)C(=O)O (Ac-Q[Cha]DL[ACHC(1S,2S)]L-OH)",4070
-7.1,1 10^4/M/s,5.4 10^-2/s,CC(=O)N[C@@H](CCC(N)=O)C(=O)N[C@@H](CC1CCCCC1)C(=O)N[C@@H](CC(=O)O)C(=O)N[C@@H](CC(C)C)C(=O)N(C)[C@@H](Cc1ccccc1)C(=O)O (Ac-Q[Cha]DL[NMeF]-OH),> 1000
-9.5,5.5 10^4/M/s,7.1 10^-3/s,CC(=O)N[C@@H](CCC(N)=O)C(=O)N[C@@H](CC1CCCCC1)C(=O)N[C@@H](CC(=O)O)C(=O)N[C@@H](CC(C)C)C(=O)N1[C@H](C(=O)N[C@@H](Cc2ccccc2)C(=O)O)C[C@@H]2CCCC[C@@H]21 (Ac-Q[Cha]DL[Oic]F-OH),120
-9.9,7.1 10^4/M/s,3.9 10^-3/s,CC(=O)N[C@@H](CCC(N)=O)C(=O)N[C@@H](CC1CCCCC1)C(=O)N[C@@H](CC(=O)O)C(=O)N[C@@H](CC(C)C)C(=O)N1[C@H](C(=O)N[C@@H](CC(C)C)C(=O)O)C[C@@H]2CCCC[C@@H]21 (Ac-Q[Cha]DL[Oic]L-OH),57
-8.4,2.6 10^4/M/s,1.9 10^-2/s,CC(=O)N[C@@H](CCC(N)=O)C(=O)N[C@@H](CC1CCCCC1)C(=O)N[C@@H](CC(=O)O)C(=O)N[C@@H](CC(C)C)C(=O)N[C@H](CO)Cc1ccccc1 (Ac-Q[Cha]DL[Phe(ol)]),751
-9,4.3 10^4/M/s,1 10^-2/s,CC(=O)N[C@@H](CCC(N)=O)C(=O)N[C@@H](CC1CCCCC1)C(=O)N[C@@H](CC(=O)O)C(=O)N[C@@H](CC(C)C)C(=O)N1CCCC[C@H]1C(=O)N[C@@H](CC(C)C)C(=O)O (Ac-Q[Cha]DL[Pip]L-OH),243
-8.8,4.4 10^4/M/s,1.7 10^-2/s,CC(=O)N[C@@H](CCC(N)=O)C(=O)N[C@@H](CC1CCCCC1)C(=O)N[C@@H](CC(=O)O)C(=O)N[C@@H](CC(C)C)C(=O)N1CC(O)C[C@H]1C(=O)N[C@@H](CC(C)C)C(=O)O (stereo partly drawn) (Ac-Q[Cha]DL[X6]L-OH),369
-5.2,–,–,CC(=O)N[C@@H](CCC(N)=O)C(=O)N[C@@H](CC1CCCCC1)C(=O)N[C@@H](CC(=O)O)C(=O)N(C)[C@@H](CC(C)C)C(=O)N[C@@H](Cc1ccccc1)C(=O)O (Ac-Q[Cha]D[NMeL]F-OH),> 1000

deltaG [2] [kcal/mol],K [3],K [4],SMILES,Kd [1] [nM]
-8.6,2.9 10^4/M/s,1.3 10^-2/s,CCN(C(=O)[C@H](CC1CCCCC1)NC(=O)[C@H](CCC(N)=O)NC(C)=O)[C@@H](CC(=O)O)C(=O)N[C@@H](CC(C)C)C(=O)N[C@@H](Cc1ccccc1)C(=O)O (Ac-Q[Cha][NEtAsp]LF-OH),523
-9.5,2.1 10^4/M/s,1.9 10^-2/s,CC(=O)N[C@@H](CCC(N)=O)C(=O)N[C@@H](CC1CCCCC1)C(=O)N(C)[C@@H](CC(=O)O)C(=O)N[C@@H](CC(C)C)C(=O)N[C@@H](Cc1ccccc1)C(=O)O (Ac-Q[Cha][NMeD]LF-OH),114
-9,1 10^5/M/s,2.3 10^-2/s,CC(=O)N[C@@H](CCC(N)=O)C(=O)N[C@@H](CC1CCCCC1)C(=O)N(C)[C@@H](CC(=O)O)C(=O)N[C@@H](CC(C)C)C(=O)N1CCC[C@H]1C(=O)N[C@@H](CC(C)C)C(=O)O (Ac-Q[Cha][NMeD]LPL-OH),263
-9.1,3.8 10^4/M/s,7.9 10^-3/s,"CC(=O)N[C@@H](CCC(N)=O)C(=O)N[C@@H](CC1CCCCC1)C(=O)N(C)[C@@H](CC(=O)O)C(=O)N[C@@H](CC(C)C)C(=O)N1CCC[C@H]1C(=O)N[C@@H](Cc1ccc(Cl)c(Cl)c1)C(=O)O (Ac-Q[Cha][NMeD]LP[Phe(3,4-Cl2)]-OH)",231
-10.1,2.7 10^5/M/s,1 10^-2/s,"CC(=O)N[C@@H](CCC(N)=O)C(=O)N[C@@H](CC1CCCCC1)C(=O)N(C)[C@@H](CC(=O)O)C(=O)N[C@@H](CC(C)C)C(=O)N[C@@H](Cc1ccc(Cl)c(Cl)c1)C(=O)O (Ac-Q[Cha][NMeD]L[Phe(3,4-Cl2)]-OH)",41
-9.3,5.6 10^4/M/s,8.4 10^-3/s,"CC(=O)N[C@@H](CCC(N)=O)C(=O)N[C@@H](CC1CCCCC1)C(=O)N(C)[C@@H](CC(=O)O)C(=O)N[C@@H](CC(C)C)C(=O)N[C@@H](Cc1ccc(F)c(F)c1)C(=O)O (Ac-Q[Cha][NMeD]L[Phe(3,4-F2)]-OH)",148
-6,–,–,CC(=O)N[C@@H](CCC(N)=O)C(=O)N(C)[C@@H](CC1CCCCC1)C(=O)N[C@@H](CC(=O)O)C(=O)N[C@@H](CC(C)C)C(=O)N[C@@H](Cc1ccccc1)C(=O)O (Ac-Q[NMeCha]DLF-OH),> 1000
-8.6,3.7 10^4/M/s,1.9 10^-2/s,CC(=O)N[C@@H](CCCNC(=N)N)C(=O)N[C@@H](CCC(N)=O)C(=O)N[C@@H](CC1CCCCC1)C(=O)N[C@@H](CC(=O)O)C(=O)N[C@@H](CC(C)C)C(=O)N[C@@H](Cc1ccccc1)C(=O)O (Ac-RQ[Cha]DLF-OH),498
-8.9,7.6 10^4/M/s,2.1 10^-2/s,"CC(=O)N[C@@H](CCCNC(=N)N)C(=O)N[C@@H](CCC(N)=O)C(=O)N[C@@H](CC1CCCCC1)C(=O)N(C)[C@@H](CC(=O)O)C(=O)N[C@@H](CC(C)C)C(=O)N[C@@H](Cc1ccc(Cl)c(Cl)c1)C(=O)O (Ac-RQ[Cha][NMeD]L[Phe(3,4-Cl2)]-OH)",278
-7.7,2.1 10^4/M/s,4.6 10^-2/s,CC(=O)N(C)[C@@H](CCC(N)=O)C(=O)N[C@@H](CC1CCCCC1)C(=O)N[C@@H](CC(=O)O)C(=O)N[C@@H](CC(C)C)C(=O)N[C@@H](Cc1ccccc1)C(=O)O (Ac-[NMeQ][Cha]DLF-OH),> 1000
-7.7,2.1 10^4/M/s,2.9 10^-2/s,CC(=O)N(C)[C@@H](CCCNC(=N)N)C(=O)N[C@@H](CCC(N)=O)C(=O)N[C@@H](CC1CCCCC1)C(=O)N[C@@H](CC(=O)O)C(=O)N[C@@H](CC(C)C)C(=O)N[C@@H](Cc1ccccc1)C(=O)O (Ac-[NMeR]Q[Cha]DLF-OH),2130
-9.6,1.1 10^5/M/s,9.4 10^-3/s,"CC(=O)N(C)[C@@H](CCCNC(=N)N)C(=O)N[C@@H](CCC(N)=O)C(=O)N[C@@H](CC1CCCCC1)C(=O)N(C)[C@@H](CC(=O)O)C(=O)N[C@@H](CC(C)C)C(=O)N[C@@H](Cc1ccc(Cl)c(Cl)c1)C(=O)O (Ac-[NMeR]Q[Cha][NMeD]L[Phe(3,4-Cl2)]-OH)",92
-9.5,4.6 10^4/M/s,4.7 10^-3/s,CC(C)C[C@H](NC(=O)[C@H](CC(=O)O)NC(=O)[C@H](CC1CCCCC1)NC(=O)[C@H](CCC(N)=O)NC(=O)/C=C/c1ccc(O)c(O)c1)C(=O)N[C@@H](Cc1ccccc1)C(=O)O (Caffeoyl-Q[Cha]DLF-OH),99
-8.3,1.8 10^4/M/s,1.4 10^-2/s,CC(C)C[C@H](NC(=O)[C@H](CC(=O)O)NC(=O)[C@H](CC1CCCCC1)NC(=O)[C@H](CCC(N)=O)NC(=O)CNCCCN1CCOCC1)C(=O)N[C@@H](Cc1ccccc1)C(=O)O (H-[Gly(N-3-morpholinopropyl)]Q[Cha]DLF-OH),796
-8.9,4.2 10^4/M/s,1.1 10^-2/s,CC(C)C[C@H](NC(=O)[C@H](CC(=O)O)NC(=O)[C@H](CC1CCCCC1)NC(=O)[C@H](CCC(N)=O)NC(=O)CNCCCn1ccnc1)C(=O)N[C@@H](Cc1ccccc1)C(=O)O (H-[N(3-imidazol-1-ylpropyl)Gly]Q[Cha]DLF-OH),312
